Test results reported in patent US20080226750A1, “Methods, Compositions and Articles of Manufacture for Treating Shock and Other Adverse Conditions” (priority 2006, published 2008).
Read-outs that look alike come from different tables or passages of the source.

Key:
[1] = test system: Drosophila melanogaster; test: Anoxia tolerance of adult flies after CO2 and/or H2S pretreatment; type: in vivo; conditions: bubbler water not equilibrated with N2, 13 h anoxic exposure
[2] = test system: Drosophila melanogaster; test: as above; type: in vivo
Description: Basic experimental setup. Adult flies were introduced into 35 mL tubes made of glass with a gas-tight rubber stopper (Balsh tubes). This was usually accomplished by anesthetizing flies with CO2, moving groups of flies to vials with food to recover for at least 2 hours, and then transferring them into the Balsh tube. To exchange the gaseous environment in the Balsh tube, two 18 gauge needles were inserted into the rubber stopper, and gas is blown into one of the needles at 100 mL/min. To prevent dessication, gasses were humidified by bubbling through 10 mL of water before passing it through the Balsch tube. The water in the bubbler is equilibrated with the gas for at least 20 minutes before starting the experiment.
For “stopped-flow” experiments, gas exchange proceeded for 60 minutes before sealing the tube. For “low-flow” experiments, gas flow continued throughout the experiment. CO2 was from the house source (100%), and anoxic environments were established by flushing out room air with 100% nitrogen (N2). Care was taken to prevent introduction of room air into the system while switching the atmosphere from CO2 to N2.
After anoxic treatment, oxygen was reintroduced into the Balsh tube by flushing with house air for 20 minutes. The rubber stopper was then removed and a food vial is inverted over the top of the Balsh tubes with Parafilm. […] Viability was scored at least 18 hours after the end of anoxic treatment. After two weeks, if the food vials contained larvae and/or pupae the flies were considered to be fertile.

[3] = test system: Drosophila melanogaster embryos and larvae; test: Anoxia survival of fly embryos and larvae; type: in vivo
Description: Preliminary experiments with larvae and embryos. […] After exposure to anoxia for 24 h, 7 pupae were formed from a pool of 0-19 h old embryos. However, 20 pupae were observed from a matched pool that was pretreated with CO2 for 10 min.

[4] = test system: C. elegans; test: Lifespan of C. elegans adapted to H2S; type: in vivo
Source text: Animals raised in house air were moved to H2S-containing environments at the beginning of the lifespan experiment. The lifespan of these animals is 14.8±0.3 days, which is shorter than controls that remained in house air (mean lifespan 18.2±0.4 days).

[5] = test system: C. elegans; test: Thermotolerance of C. elegans adapted to H2S; type: in vivo
Source text: A: Adapted animals survive at high temperature longer than unadapted controls. Adapted animals were exposed to high temperature in H2S as young adults.

[6] = test system: rodents and humans; conditions: 500 ppm; followed by recovery; cited from earlier work
[7] = test system: rat hemorrhage model; test: Controlled lethal hemorrhage (60% blood loss) in rats treated with H2S; type: in vivo
Description: After surgical implantation of catheters and recovery, blood was removed from conscious animals in 40 minutes. […] Three hours after the end of the bleed, surviving animals were given one shed-blood volume of lactated ringers solution intravenously.

[8] = test system: mice in lethal hypoxia; test: Survival of H2S pre-treated mice in lethal hypoxia; type: in vivo, mouse; conditions: graded reduction of oxygen tension following H2S pre-treatment
Description: FIG. 11 Survival of Mice in 5% Oxygen.
Experiments were stopped at 60 minutes and if the animals still alive were returned to their cage.

[9] = test system: C. elegans; test: Developmental rates, progeny and rate of egg-laying of C. elegans in H2S; type: in vivo
Source text: The rate of egg-laying is tightly correlated with oocyte production, an energetically expensive activity that is a sensitive readout of metabolic capacity.

[10] = test system: mice; test: Metabolic rate (CO2 production, O2 consumption) of mice with H2S and hypoxia; type: in vivo, mouse; conditions: Ta=13° C.
Description: FIG. 14 Metabolic Rate of a Mouse in 5% Oxygen. […] Metabolic rate measured by CO2 output. […] At hour 6 the mouse was returned to room air and allowed to recover.
FIG. 15 CO2 Production During Transition to Lethal Hypoxia. […] In addition, the change in CO2 production upon step-wise transition to 5% O2 for 1 hr followed by 4% O2 was measured. The percent change in CO2 production is plotted with standard error indicated.
Relative carbon dioxide production and oxygen consumption of a mouse when pretreated and exposed to 5% O2. […] These experiments were done at Ta=13° C. so they could be compared to our previous studies. Values are the means from three animals and the error bars represent one standard deviation. p-values indicate the significance between the bars with the same symbols.
To determine the rate of consumption of oxygen or the rate of production of carbon dioxide the biological matter is placed into a chamber that is sealed with two openings; for gas import and export. Gas (room air or other gases) is passed into the chamber at a given flow rate and out of the exit port to maintain approximately 1 atmosphere of pressure in the chamber. […]
In addition, the change in CO2 production upon step-wise transition to 5% O2 for 1 hr followed by 4% O2 was measured.

[11] = test system: rats; conditions: cited from earlier work
[12] = test system: humans; conditions: cited from earlier work

## O=C=O [CO2, carbon dioxide]
[1]
  Survival of adult flies: no flies survived
[2]; 10 min CO2 pretreatment, 17, 22, and 24 h anoxia, low-flow, one experiment
  Survival of adult flies: no survival
[2]; CO2 10 minutes pretreatment (no H2S), 20 h anoxic exposure, low-flow
  Survival of adult flies: 6%
[2]; CO2 pretreatment 30 minutes, 19 h anoxic exposure, stopped-flow
  Survival of adult flies: 54%
[2]; CO2 pretreatment 90 minutes, 19 h anoxic exposure, stopped-flow
  Survival of adult flies: 28%
[2]; CO2 pretreatment, anoxic exposure, then CO2 for 20 minutes immediately following
  Survival of adult flies: no flies survived
[2]; CO2 without subsequent anoxic exposure
  Survival of adult flies: No survival
[2]; flies kept at 4° C. during anoxia
  Effect of CO2 pretreatment in cold treatment experiments: did not have a noticeable difference
[2]; low-flow, 100% CO2 10 min, trend (FIG. 9)
  Survival versus no pretreatment: greater survival
[2]; stopped-flow, 22 h anoxic exposure
  Time of CO2 administration giving the highest fraction of surviving flies: 0.5 to 5 min
[3]; 18.5 h anoxic exposure
  Survival of 0-24 h old embryos: develop to adulthood
[3]; 24.5 h anoxia, only if pretreated
  Movement of larvae upon reoxygenation: resume movement
[3]; CO2 pretreatment 10 min, anoxia 24 h
  Pupae formed from a pool of 0-19 h old embryos: 20 pupae

## S [H2S, Hydrogen sulfide]
[4]; adapted animals in H2S (n=80)
  Mean lifespan: 22.6 ± 1.0 days
[4]; animals grown in H2S versus untreated controls
  Increase of maximum lifespan: 4 days
[4]; raised in house air, moved to H2S at the beginning of the lifespan experiment
  Lifespan: 14.8 ± 0.3 days
[4]; sir-2.1(ok434) animals raised in H2S (n=47)
  Lifespan: 20.0 ± 1.6 days
[5]; adapted animals at high temperature in room air
  Survival at high temperature: 7.3 h
[5]; average, data not shown
  H2S-treated animals alive when all untreated animals had died: 80%
[5]; sir-2.1(ok434) animals grown in H2S, high temperature in H2S (n=20)
  Mean survival time at high temperature: 9.8 ± 0.3 h
[5]; unadapted animals moved to high temperature in 50 ppm H2S
  Mean survival time at high temperature: 2.1 h
[5]; wild-type adapted animals, high temperature in H2S (n=136)
  Mean survival time at high temperature: 65.5 h
[6]
  Effect of exposure to extreme levels: sudden collapse and unconsciousness
[7]; 300 ppm H2S in room air from 20 min into the 40 min bleed to end of bleed
  Complete recovery: 85.7%
[7]; 300 ppm H2S, survivors/treated
  Rats that survived hemorrhage and 3 hour shock period and recovered completely: 6/7
[7]; End of bleed
  Blood bicarbonate content ([HCO3^−]): 21 ± 3 mmol/L
[7]; Pre-bleed
  Blood bicarbonate content ([HCO3^−]): 32 ± 3 mmol/L
[8]
  Lowest oxygen tension survived for an hour: 2.5%
[9]; adapted (wild-type in 50 ppm H2S), in 2% O2
  Rate of egg-laying: 4.9 ± 1.4 embryos per hour
[9]; adapted (wild-type in 50 ppm H2S), in 2% O2 + H2S
  Rate of egg-laying: 4.7 ± 1.2 embryos per hour
[9]; adapted (wild-type in 50 ppm H2S), in H2S
  Rate of egg-laying: 7.8 ± 2.0 embryos per hour
[9]; adapted: wild-type animals in 50 ppm H2S, median time for 2-cell embryos to hatch at room temperature
  embryogenesis, hours ± SEM (n): 13.3 ± 0.4 (34) hours
[9]; adapted: wild-type animals in 50 ppm H2S, median time for starved first-stage larvae to become gravid adults
  post-embryonic, hours ± SEM (n): 49.3 ± 0.2 (15) hours
[9]; animals raised in low H2S
  Numbers of progeny: 221±35
[9]; clk-1(qm30), in 2% O2 + H2S
  Rate of egg-laying: 2.5 ± 1.0 embryos per hour
[9]; clk-1(qm30), in H2S
  Rate of egg-laying: 3.2 ± 1.1 embryos per hour
[9]; unadapted (wild-type grown in room air), in H2S, ± SD, n = 10
  Rate of egg-laying: 8.3 ± 3.0 embryos per hour
[9]; unadapted, in 2% O2 + H2S
  Rate of egg-laying: 4.5 ± 1.6 embryos per hour
[10]; 150 ppm H2S 20 min pretreatment then long exposure to 5% oxygen
  Drop in metabolic rate: over 50 fold
[10]; H2S alone for the same period of time (80 ppm, six hours)
  Drop in metabolic rate: 10 fold
[11]; 20 or 50 ppm H2S, 7 hours per day from gestation through post-natal day 21
  Effect of perinatal exposure: longer dendritic branches with reduced aborization of cerebellar Purkinje cells
[11]; 80 ppm or greater H2S, 3 hours per day on five consecutive days (Struve et al. 2001)
  Effects of repeated gas exposure: Significant reductions in motor activity, water maze performance and body temperature
[11]; moderate levels (Partlo et al., 2001)
  Behavioral toxicity, learning: interferes with the ability of rats to learn a baited radial arm maze task
[11]; moderate levels, immediately after the end of the exposure (Higuchi and Fukamachi)
  Behavioral toxicity, avoidance: inhibits discriminated avoidance responses
[11]; perinatal study, 80 ppm H2S (Dorman et al. 2000)
  Effects in exposed rat pups: no neuropathological effects or altered motor activity, passive avoidance, or acoustic startle response
[2]; 50 ppm H2S in room air prior to anoxia, 18.5 h
  Survival of adult flies: 25%
[2]; 50 ppm H2S in the CO2 pretreatment, removed as anoxia is established, 20 h
  Survival of adult flies: 35%
[2]; CO2 10 min, H2S/CO2 10 min, N2/H2S 10 min, then N2, 15 h anoxic exposure, low-flow
  Survival of adult flies: 50%

## [C-]#[O+] [carbon monoxide, Carbon monoxide]
[12]; 50 ppm
  Effect on exposed humans: no symptoms
[12]; 200 ppm, within two-three hours
  Effect on exposed humans: slight headache
[12]; 400 ppm, within one to two hours
  Effect on exposed humans: frontal headache
[12]; 800 ppm, within 45 minutes
  Effect on exposed humans: dizziness, nausea, and/or convulsions
[12]; around 1000 ppm, exposure for more than around 1-2 minutes
  Effect on an organism: expire

## O=C=O [CO, carbon dioxide]
[2]; treated only with CO2 for 10 min before the anoxic exposure, control experiment
  Flies recovered: 11%
